According to publication PMC5538626, “Structural and functional analysis of the GABARAP interaction motif (GIM)” (EMBO Reports, 2017):
Ends that are not written are not given here.

Legend:
[1] = target: LC3-subfamily of proteins; assay: ITC, LC3-subfamily (range); type: binding, human
Description: (§1) All titration experiments were performed at 25°C using a VP‐ITC microcalorimeter (Malvern Instruments Ltd, UK). The ITC data were analysed with the ITC‐Origin 7.0 software with a “one‐site” binding model. The peptides at concentrations of 0.4 mM were titrated into 0.020 mM LC3 and GABARAP proteins in 26 steps. The protein and peptide concentrations were calculated from the UV absorption at 280 nm by NanoDrop spectrophotometer (Thermo Fisher Scientific, DE, USA).

GABARAP R28K = target: T1, GABARAP R28K (Homo sapiens, UniProt O95166, R28K); assay: ITC titration of PLEKHM1-LIR peptide into GABARAP R28K mutant; type: binding
T1 construct: modified Ub-leader (ubiquitin fusion leader) (N); made in house; host or cells: E. coli NEB T7 Express
Description: (§2) The chimeric constructs were expressed as a His‐tag fusion protein in E. coli BL21(DE3) cells. The cells were induced with 0.3 mM IPTG at OD600 0.6 for 16 h at 26°C. The cell pellets were lysed using mechanical sonication in lysis buffer (20 mM Tris–HCl pH 9.0, 100 mM NaCl, 10 mM imidazole, supplemented with 0.1% Triton X‐100). The proteins were purified using Ni‐NTA beads (GE Healthcare) and the His‐tag was cleaved using thrombin (Invitrogen) at room temperature for 16 h. The last step was gel filtration chromatography using a Superdex S200/300 GL column (GE Healthcare). The proteins were concentrated using spin concentrators (Vivaspin). For ITC and NMR studies, the non‐labelled and stable isotopes labelled LC3 and GABARAP proteins were obtained based on the protocols described elsewhere 30, 39. Here, E. coli NEB T7 Express culture transformed with corresponding plasmids were grown till OD600 nm = 1.0 and protein expression was induced with 0.2 mM IPTG. The cultures were incubated at 25°C for 8–12 h before cell harvesting. Isolation and purification procedures were similar to those reported in Ref. 22, 40. Before experiments, all proteins and peptides were equilibrated with a buffer containing 50 mM Na2HPO4, 100 mM NaCl at pH 7.0, and supplied with 5 mM protease inhibitor cocktail.
(§3) The protocol for preparation of non‐labelled and ^13C,^15N‐labelled PLEKHM1‐LIR peptide was slightly modified to achieve highest yield of the peptide. The 50 ml M9 culture was inoculated with NEB T7 cell transformed with pET39_Ub63‐PLEKHM1‐LIR plasmid and grown overnight at 37°. The collected cells were resuspended in 2 l of either LB or M9 media contained 1.5 g ^15N‐labelled NH4Cl and 3.0 g of ^13C‐labelled glucose. The cultures were grown at 37° till A(600 nm) = 0.9 and supplied with 1 mM of IPTG to induce Ub63‐PLEKHM1‐LIR overexpression (3 h at 37°). After that cells were harvested by centrifugation, re‐suspended in buffer contained 50 mM Tris–HCl pH = 7.9, 200 mM NaCl, 5% glycerol, 0.1 mg/ml DNase A and 4 mM protease inhibitor cocktail. After cell lysis by French press, debris was removed by centrifugation and clear supernatant was applied onto the column contained Ni‐NTA Sepharose equilibrated with the loading buffer (50 mM Tris–HCl pH = 7.9, 250 mM NaCl, 1% glycerol and 20 mM imidazole). Elution was performed with 400 mM imidazole in the same buffer. An aliquot of pure Ub63‐PLEKHM1‐LIR fractions was further purified by gel filtration on Superdex75 26 × 60 column for control ITC and analytical size exclusion chromatography experiments, remaining fusion protein was processed with the TEV‐protease and PLEKHM1‐LIR peptide was purified to 95% purity by reverse Ni‐NTA chromatography and followed gel filtration on Superdex75 26 × 60 column. Peak maximum of peptide was detected at […] (void volume 115 ml). Pure peptide was concentrated in Amicon concentrators with cut‐off of 3 kDa (> 95% retention).
as §1

LC3B K30R = target: T2, LC3B K30R (Homo sapiens, UniProt Q9GZQ8, K30R); assay: ITC titration of PLEKHM1-LIR peptide into LC3B K30R mutant; type: binding
T2 construct: modified Ub-leader (ubiquitin fusion leader) (N); made in house; host or cells: E. coli NEB T7 Express
Description: as §2, §3, §1

T1 sequence (O95166 whole entry R28K, the tested form may be a part): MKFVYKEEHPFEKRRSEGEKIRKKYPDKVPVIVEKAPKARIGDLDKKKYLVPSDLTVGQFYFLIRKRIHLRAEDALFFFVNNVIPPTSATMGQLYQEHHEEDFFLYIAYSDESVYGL

GAMGPQQEDEWVNVQYPD [PLEKHM1‐LIR WT]
Kd [1]: 3.5 to 6.3 µM | -T*DS (GABARAP R28K; 25°C, pH 7.0, GABARAP R28K): +2.00 kcal mol-1 | DG (ΔG) (GABARAP R28K; 25°C, pH 7.0, GABARAP R28K): -8.55 kcal/mol | DH (ΔH) (GABARAP R28K; 25°C, pH 7.0, GABARAP R28K): -10.55 ± 0.1 kcal/mol | DS (ΔS) (GABARAP R28K; 25°C, pH 7.0, GABARAP R28K): -6.71 cal mol-1 K-1 | KA (GABARAP R28K; 25°C, pH 7.0, GABARAP R28K): 1.9±0.1 *10^6 M-1 | N (GABARAP R28K; 25°C, pH 7.0, GABARAP R28K): 1.05±0.01 | smaller favorable enthalpy vs wild type GABARAP (GABARAP R28K; within experimental error): 0.05 kcal/mol | -T*DS (LC3B K30R; 25°C, pH 7.0, LC3B K30R): -1.08 kcal/mol | DG (ΔG) (LC3B K30R; 25°C, pH 7.0, LC3B K30R): -7.20 kcal/mol | DH (ΔH) (LC3B K30R; 25°C, pH 7.0, LC3B K30R): -6.1 ± 0.2 kcal/mol | DS (ΔS) (LC3B K30R; 25°C, pH 7.0, LC3B K30R): +3.61 cal mol-1 K-1 | KA (LC3B K30R; 25°C, pH 7.0, LC3B K30R): 0.19±0.01 *10^6 M-1 | N (LC3B K30R; 25°C, pH 7.0, LC3B K30R): 1.11±0.02 | increase in favorable binding enthalpy vs wild type LC3B (LC3B K30R; within experimental error): 0.3 kcal/mol
